This note sets out measurements from patent US20250353891A1 (MEDIMMUNE LIMITED, priority 2022, published 2025).

Test [1] addresses human GLP-1 receptor (hGLP-1R) (Homo sapiens, UniProt P43220). As to the kind of experiment: cAMP production (HTRF) in CHO cells expressing hGLP-1R. The class given is cell-based. The arrangement: expressed in transfected cells. The following applies: for EC50: Table 6, peptides modified at position 17, cAMP in CHO hGLP-1R cells, geometric mean, read-out: hGLP-1R EC50; for % Relative Potency Ratio: Table 6, % GLP-1R activity relative to GLP-1 / % GlucR activity relative to glucagon. The method in brief: (§1)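 Potency values represent EC50 from 4-parameter logistic curves of HTRF % Delta F signal. Receptor-expressing CHO cells (hGCGR 2×10^5 cells/mL, hGLP-1R 1×10^5 cells/mL) were exposed for 30 min at room temperature before two-step cAMP detection.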
(In general: Cyclic AMP is a second messenger, typically raised through Gs and lowered through Gi signalling.)

The target in test [2] is human glucagon receptor (hGCGR) (Homo sapiens, UniProt P47871). The experiment in a line: cAMP production (HTRF) in CHO cells expressing hGCGR. The test is classed as cell-based. Details: expressed in transfected cells. The following applies: Table 6, peptides modified at position 17; cAMP in CHO hGCGR cells; geometric mean; read-out: hGluc-R EC50. The method in brief:
as §1

Starred links: 1 amine or outer side, 2 acyl side, 3 side chain; linkers in the order of their positions; H or OH if unused. Non-standard residues stand in square brackets, D forms with d. Residues, ends and D or L forms follow the SMILES beside them. Groups on a side chain read outwards from the residue. *: point of attachment. C20 diacid = O=C(O)CCCCCCCCCCCCCCCCCCC(=O)*; γGlu = O=C(O)[C@H](CCC(=O)[*:2])N[*:1]; αMeF = C[C@](N)(Cc1ccccc1)C(=O)O; AEEA = NCCOCCOCC(=O)O; Aib = CC(C)(N)C(=O)O

The term EC50 denotes the concentration giving half of the maximal effect.

Chain of human glucagon receptor (hGCGR) (P47871 26-477): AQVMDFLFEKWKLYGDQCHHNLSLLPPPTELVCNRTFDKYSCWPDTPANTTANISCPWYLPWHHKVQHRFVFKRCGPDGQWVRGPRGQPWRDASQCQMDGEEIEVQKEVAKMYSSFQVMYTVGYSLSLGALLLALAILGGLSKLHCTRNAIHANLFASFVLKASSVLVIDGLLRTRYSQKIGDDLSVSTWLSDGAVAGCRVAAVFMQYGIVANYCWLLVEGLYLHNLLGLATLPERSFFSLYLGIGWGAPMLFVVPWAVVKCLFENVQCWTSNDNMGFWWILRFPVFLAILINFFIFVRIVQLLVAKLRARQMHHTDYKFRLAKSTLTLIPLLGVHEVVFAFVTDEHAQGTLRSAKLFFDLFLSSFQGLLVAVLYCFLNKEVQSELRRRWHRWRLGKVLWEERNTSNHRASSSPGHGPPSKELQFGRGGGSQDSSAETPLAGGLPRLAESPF
Chain of human GLP-1 receptor (hGLP-1R) (P43220 24-463): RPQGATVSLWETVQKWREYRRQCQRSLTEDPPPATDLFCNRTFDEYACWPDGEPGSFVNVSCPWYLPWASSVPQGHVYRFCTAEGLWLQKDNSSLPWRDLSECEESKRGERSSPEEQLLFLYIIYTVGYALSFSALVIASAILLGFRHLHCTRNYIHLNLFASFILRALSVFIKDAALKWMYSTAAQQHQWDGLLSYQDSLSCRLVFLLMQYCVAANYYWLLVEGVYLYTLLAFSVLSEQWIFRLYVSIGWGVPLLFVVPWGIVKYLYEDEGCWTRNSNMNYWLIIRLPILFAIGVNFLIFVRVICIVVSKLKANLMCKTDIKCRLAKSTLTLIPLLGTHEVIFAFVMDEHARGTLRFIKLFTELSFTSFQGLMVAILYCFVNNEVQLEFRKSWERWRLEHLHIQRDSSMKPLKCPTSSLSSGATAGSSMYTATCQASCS

Take `CC(C)C[C@H](NC(=O)[C@H](Cc1c[nH]c2ccccc12)NC(=O)[C@H](CCC(N)=O)NC(=O)[C@@H](NC(=O)[C@H](Cc1ccccc1)NC(=O)[C@H](CC(=O)O)NC(=O)[C@H](CCC(N)=O)NC(=O)[C@H](C)NC(=O)[C@H](CCCNC(=N)N)NC(=O)[C@H](CCCCNC(=O)COCCOCCNC(=O)COCCOCCNC(=O)CC[C@H](NC(=O)CC[C@H](NC(=O)CCCCCCCCCCCCCCCCCCC(=O)O)C(=O)O)C(=O)O)NC(=O)[C@@H](NC(=O)[C@H](CC(=O)O)NC(=O)[C@H](CC(C)C)NC(=O)[C@](C)(Cc1ccccc1)NC(=O)[C@H](CCCCN)NC(=O)[C@H](CO)NC(=O)[C@@H](NC(=O)[C@H](CC(=O)O)NC(=O)[C@H](CO)NC(=O)[C@@H](NC(=O)[C@H](Cc1ccccc1)NC(=O)[C@@H](NC(=O)CNC(=O)[C@H](CCC(N)=O)NC(=O)C(C)(C)NC(=O)[C@@H](N)Cc1c[nH]cn1)[C@@H](C)O)[C@@H](C)O)C(C)C)[C@@H](C)O)C(C)C)C(=O)N[C@@H](CC(C)C)C(=O)N[C@@H](CCC(=O)O)C(=O)NC(C)(C)C(=O)NCC(N)=O` [Peptide 469] (H-H[Aib]QGTFTSDVSK[αMeF]LDTK([AEEA-AEEA-γGlu-γGlu-C20 diacid])RAQDFVQWLLE[Aib]G-NH2): in test [1], the EC50 is 0.255 nM and the “% Relative Potency Ratio” value is reported as 4.2. Besides, the EC50 in test [2] was 0.538 nM.

On to `CC(C)C[C@H](NC(=O)[C@H](Cc1c[nH]c2ccccc12)NC(=O)[C@H](CCC(N)=O)NC(=O)[C@@H](NC(=O)[C@H](Cc1ccccc1)NC(=O)[C@H](CC(=O)O)NC(=O)[C@H](CCCNC(=N)N)NC(=O)[C@H](C)NC(=O)[C@H](CCCNC(=N)N)NC(=O)[C@H](CCCCNC(=O)COCCOCCNC(=O)COCCOCCNC(=O)CC[C@H](NC(=O)CCCCCCCCCCCCCCCCCCC(=O)O)C(=O)O)NC(=O)[C@H](CCCCN)NC(=O)[C@H](CC(=O)O)NC(=O)[C@H](CC(C)C)NC(=O)[C@](C)(Cc1ccccc1)NC(=O)[C@H](CCCCN)NC(=O)[C@H](CO)NC(=O)[C@@H](NC(=O)[C@H](CC(=O)O)NC(=O)[C@H](CO)NC(=O)[C@@H](NC(=O)[C@H](Cc1ccccc1)NC(=O)[C@@H](NC(=O)CNC(=O)[C@H](CCC(N)=O)NC(=O)C(C)(C)NC(=O)[C@@H](N)Cc1c[nH]cn1)[C@@H](C)O)[C@@H](C)O)C(C)C)C(C)C)C(=O)N[C@@H](CC(C)C)C(=O)NC(C)(C)C(=O)N[C@@H](CCC(=O)O)C(N)=O` [Peptide 470] (H-H[Aib]QGTFTSDVSK[αMeF]LDKK([AEEA-AEEA-γGlu-C20 diacid])RARDFVQWLL[Aib]E-NH2; N-terminus assumed), for which, in test [1], the EC50 turned out to be 0.0559 nM and the “% Relative Potency Ratio” value is recorded as 1.1. Also, in test [2], the EC50 is 0.0303 nM.

Take `CC(C)C[C@H](NC(=O)[C@H](Cc1c[nH]c2ccccc12)NC(=O)[C@H](CCC(N)=O)NC(=O)[C@@H](NC(=O)[C@H](Cc1ccccc1)NC(=O)[C@H](CC(=O)O)NC(=O)[C@H](CCCNC(=N)N)NC(=O)[C@H](C)NC(=O)[C@H](CCCNC(=N)N)NC(=O)[C@H](CCCCNC(=O)COCCOCCNC(=O)COCCOCCNC(=O)CC[C@H](NC(=O)CCCCCCCCCCCCCCCCCCC(=O)O)C(=O)O)NC(=O)[C@H](CCCNC(=N)N)NC(=O)[C@H](CC(=O)O)NC(=O)[C@H](CC(C)C)NC(=O)[C@](C)(Cc1ccccc1)NC(=O)[C@H](CCCCN)NC(=O)[C@H](CO)NC(=O)[C@@H](NC(=O)[C@H](CC(=O)O)NC(=O)[C@H](CO)NC(=O)[C@@H](NC(=O)[C@H](Cc1ccccc1)NC(=O)[C@@H](NC(=O)CNC(=O)[C@H](CCC(N)=O)NC(=O)C(C)(C)NC(=O)[C@@H](N)Cc1c[nH]cn1)[C@@H](C)O)[C@@H](C)O)C(C)C)C(C)C)C(=O)N[C@@H](CC(C)C)C(=O)NC(C)(C)C(=O)N[C@@H](CCC(=O)O)C(N)=O` [Peptide 471]: in test [1], the EC50 stood at 0.102 nM and the “% Relative Potency Ratio” value is 1.2. Besides, the EC50 in test [2] was 0.0636 nM.
